Measured values reported in patent publication US12653459B2, “Systems, devices, and methods for blood pressure control” (Massachusetts Institute of Technology, priority 2022, dated 2026).

How the values were obtained:
[1] = two-compartment model of NI; mean ± spread; cited from earlier work
[2] = human, in vivo
Description: In two-compartment modeling, there is a central compartment and a peripheral compartment. […] The peripheral compartment contains tissues, including fat and bone, which uptake the drug at a slower rate than the central compartment.
where c1 in [mcg·L^−1] is the drug concentration in the central compartment, c2 in [mcg·L^−1] is the drug concentration in the peripheral compartment, kel in [min^−1] is the elimination rate constant, k12 in [min^−1] is the rate constant of distribution from the central compartment to the peripheral compartment, k21 in [min^−1] is the rate constant of distribution from the peripheral compartment to the central compartment, V1 in [L] is the volume of distribution of the central or first compartment, and u in [mcg·min^−1] represents the input infusion rate of a drug into the system. The constants defined in this model correspond to mass flow rate constants, which are traditionally estimated from empirical PK studies. As such, the formulation of Eq. 1.3 represents the dynamics of drug concentrations in the body in terms of mass flow rate constants. […] This model is time-invariant.
The volume in the central compartment, given in 0.32±0.19 in [L·kg^−1], is converted to
[formula] in [L] by multiplying by 85.41 in [kg], the average weight of the patient cohort. The following values are also derived:
[formula] […] It should be appreciated again these empirical values are mass flow rate constants.
From these parameters, k12, k21, and kel can be derived using the following,

k12, rate constant of distribution from the central compartment to the peripheral compartment [2]: ≈ 0.0183 min^−1 | k21, rate constant of distribution from the peripheral compartment to the central compartment [2]: ≈ 0.0019 min^−1 | kel, elimination rate constant [2]: ≈ 0.0223 min^−1
SMILES: COC(=O)C1=C(C)NC(C)=C(C(=O)OCCN(C)Cc2ccccc2)C1c1cccc([N+](=O)[O-])c1 (stereo not drawn) [NI, nicardipine]
V1, the volume of distribution in the central compartment [1]: 0.32 ± 0.19 L/kg | t1/2α, the distribution half-life [1]: 0.278 ± 0.18 h | t1/2β, the elimination half-life [1]: 11.49 ± 5.76 h
